PubChem BioAssay AID248 (DTP/NCI, 2004)
Inconclusive results and toxic doses are left out.

System: L1210 leukemia ip in BDF1 mice, survival T/C
Experiment: NCI In Vivo Anticancer Drug Screen. Data for tumor model L1210 Leukemia (intraperitoneal) in B6D2F1 (BDF1) mice
Details: higher = longer survival
Outline: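 Transplantable tumor model; survival measured in treated vs vehicle control mice. Value = treated/control.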

[1] = endpoint: mean survival time, dose: 100.0 mg/kg/injection, schedule: Q04DX003 (ip), vehicle: Klucel (hydroxypropylcellulose) (HPC)
[2] = endpoint: mean survival time, dose: 200.0 mg/kg/injection, schedule: Q04DX003 (ip), vehicle: Klucel (hydroxypropylcellulose) (HPC)
[3] = endpoint: mean survival time, dose: 400.0 mg/kg/injection, schedule: Q04DX003 (ip), vehicle: Klucel (hydroxypropylcellulose) (HPC)
[4] = endpoint: mean survival time, dose: 100.0 mg/kg/injection, schedule: Q01DX009 (ip), vehicle: saline with Tween-80
[5] = endpoint: mean survival time, dose: 100.0 mg/kg/injection, schedule: Q04DX003 (ip), vehicle: saline with Tween-80
[6] = endpoint: mean survival time, dose: 200.0 mg/kg/injection, schedule: Q01DX009 (ip), vehicle: saline with Tween-80
[7] = endpoint: mean survival time, dose: 200.0 mg/kg/injection, schedule: Q04DX003 (ip), vehicle: saline with Tween-80
[8] = endpoint: mean survival time, dose: 400.0 mg/kg/injection, schedule: Q01DX009 (ip), vehicle: saline with Tween-80
[9] = endpoint: mean survival time, dose: 400.0 mg/kg/injection, schedule: Q04DX003 (ip), vehicle: saline with Tween-80
[10] = endpoint: mean survival time, dose: 100.0 mg/kg/injection, schedule: Q04DX003 (ip), vehicle: saline
[11] = endpoint: mean survival time, dose: 200.0 mg/kg/injection, schedule: Q04DX003 (ip), vehicle: saline
[12] = endpoint: mean survival time, dose: 400.0 mg/kg/injection, schedule: Q04DX003 (ip), vehicle: saline

## CC1CC(C)(O)CC(C(O)CC2CC(=O)NC(=O)C2)C1=O (stereo unspecified)
endpoint: mean survival time, dose: 0.02 mg/kg/injection, schedule: Q03HX024 (ip), vehicle: saline
  T/C: 109 % of control
endpoint: mean survival time, dose: 0.03 mg/kg/injection, schedule: Q01DX Z (ip), vehicle: other
  T/C: 118 % of control
endpoint: mean survival time, dose: 0.04 mg/kg/injection, schedule: Q03HX016 (ip), vehicle: saline
  T/C: 111 % of control
endpoint: mean survival time, dose: 0.04 mg/kg/injection, schedule: Q03HX024 (ip), vehicle: saline
  T/C: 117 % of control
endpoint: mean survival time, dose: 0.08 mg/kg/injection, schedule: Q01DX005 (ip), vehicle: saline
  T/C: 120 % of control
endpoint: mean survival time, dose: 0.08 mg/kg/injection, schedule: Q01DX005 (iv), vehicle: saline
  T/C: 108 % of control
endpoint: mean survival time, dose: 0.08 mg/kg/injection, schedule: Q01DX009 (ip), vehicle: saline
  T/C: 155 % of control
endpoint: mean survival time, dose: 0.08 mg/kg/injection, schedule: Q01DX Z (ip), vehicle: methylcellulose (MC)
  T/C: 123 % of control
endpoint: mean survival time, dose: 0.08 mg/kg/injection, schedule: Q01DX Z (ip), vehicle: other
  T/C: 119 % of control
endpoint: mean survival time, dose: 0.08 mg/kg/injection, schedule: Q03HX016 (ip), vehicle: saline
  T/C: 117 % of control
endpoint: mean survival time, dose: 0.15 mg/kg/injection, schedule: Q01DX005 (iv), vehicle: saline
  T/C: 115 % of control
endpoint: mean survival time, dose: 0.15 mg/kg/injection, schedule: Q01DX009 (ip), vehicle: saline
  T/C: 87 % of control
endpoint: mean survival time, dose: 0.15 mg/kg/injection, schedule: Q01DX009 (oral), vehicle: saline
  T/C: 109 % of control
endpoint: mean survival time, dose: 0.15 mg/kg/injection, schedule: Q03HX024 (ip), vehicle: saline
  T/C: 155 % of control
endpoint: mean survival time, dose: 0.3 mg/kg/injection, schedule: Q01DX001 (iv), vehicle: saline
  T/C: 105 % of control
endpoint: mean survival time, dose: 0.3 mg/kg/injection, schedule: Q01DX009 (oral), vehicle: saline
  T/C: 117 % of control
endpoint: mean survival time, dose: 0.3 mg/kg/injection, schedule: Q01DX Z (ip), vehicle: methylcellulose (MC)
  T/C: 155 % of control
endpoint: mean survival time, dose: 0.3 mg/kg/injection, schedule: Q01DX Z (ip), vehicle: other
  T/C: 157 % of control
endpoint: mean survival time, dose: 0.3 mg/kg/injection, schedule: Q03HX016 (ip), vehicle: saline
  T/C: 161 % of control
endpoint: mean survival time, dose: 0.3 mg/kg/injection, schedule: Q03HX024 (ip), vehicle: saline
  T/C: 157 % of control
endpoint: mean survival time, dose: 0.3 mg/kg/injection, schedule: Q11DX001 (ip), vehicle: saline
  T/C: 105 % of control
endpoint: mean survival time, dose: 0.3 mg/kg/injection, schedule: Q14DX008 (ip), vehicle: saline
  T/C: 112 % of control
endpoint: mean survival time, dose: 0.6 mg/kg/injection, schedule: Q01DX001 (iv), vehicle: saline
  T/C: 110 % of control
endpoint: mean survival time, dose: 0.6 mg/kg/injection, schedule: Q01DX005 (iv), vehicle: saline
  T/C: 112 % of control
endpoint: mean survival time, dose: 0.6 mg/kg/injection, schedule: Q01DX009 (oral), vehicle: saline
  T/C: 95 % of control
endpoint: mean survival time, dose: 0.6 mg/kg/injection, schedule: Q01DX Z (ip), vehicle: methylcellulose (MC)
  T/C: 92 % of control
endpoint: mean survival time, dose: 0.6 mg/kg/injection, schedule: Q08DX002 (ip), vehicle: saline
  T/C: 124 % of control
endpoint: mean survival time, dose: 0.6 mg/kg/injection, schedule: Q11DX001 (ip), vehicle: saline
  T/C: 114 % of control
endpoint: mean survival time, dose: 0.6 mg/kg/injection, schedule: Q14DX008 (ip), vehicle: saline
  T/C: 116 % of control
endpoint: mean survival time, dose: 0.9 mg/kg/injection, schedule: Q01DX Z (ip), vehicle: other
  T/C: 95 % of control
endpoint: mean survival time, dose: 1.2 mg/kg/injection, schedule: Q01DX001 (iv), vehicle: saline
  T/C: 121 % of control
endpoint: mean survival time, dose: 1.2 mg/kg/injection, schedule: Q01DX005 (ip), vehicle: saline
  T/C: 88 % of control
endpoint: mean survival time, dose: 1.2 mg/kg/injection, schedule: Q11DX001 (ip), vehicle: saline
  T/C: 113 % of control
endpoint: mean survival time, dose: 1.2 mg/kg/injection, schedule: Q11DX001 (oral), vehicle: saline
  T/C: 109 % of control
endpoint: mean survival time, dose: 1.2 mg/kg/injection, schedule: Q14DX008 (ip), vehicle: saline
  T/C: 113 % of control
endpoint: mean survival time, dose: 1.35 mg/kg/injection, schedule: Q01DX Z (ip), vehicle: other
  T/C: 87 % of control
endpoint: mean survival time, dose: 2.4 mg/kg/injection, schedule: Q01DX001 (iv), vehicle: saline
  T/C: 118 % of control
endpoint: mean survival time, dose: 2.4 mg/kg/injection, schedule: Q04DX003 (ip), vehicle: saline
  T/C: 154 % of control
endpoint: mean survival time, dose: 2.4 mg/kg/injection, schedule: Q11DX001 (ip), vehicle: saline
  T/C: 112 % of control
endpoint: mean survival time, dose: 2.4 mg/kg/injection, schedule: Q11DX001 (oral), vehicle: saline
  T/C: 101 % of control
endpoint: mean survival time, dose: 2.4 mg/kg/injection, schedule: Q14DX008 (ip), vehicle: saline
  T/C: 108 % of control
endpoint: mean survival time, dose: 4.8 mg/kg/injection, schedule: Q11DX001 (ip), vehicle: saline
  T/C: 108 % of control
endpoint: mean survival time, dose: 10.0 micrograms/kg/injection, schedule: Q01DX Z (ip), vehicle: other
  T/C: 100 % of control
endpoint: mean survival time, dose: 20.0 micrograms/kg/injection, schedule: Q01DX Z (ip), vehicle: other
  T/C: 102 % of control
endpoint: mean survival time, dose: 40.0 micrograms/kg/injection, schedule: Q01DX Z (ip), vehicle: other
  T/C: 110 % of control
endpoint: mean survival time, dose: 80.0 micrograms/kg/injection, schedule: Q01DX Z (ip), vehicle: other
  T/C: 115 % of control
endpoint: median survival time, dose: 2.0 mg/kg/injection, schedule: Q04DX003 (ip), vehicle: saline
  T/C: 154 % of control

## NS(=O)(=O)c1ccc(NC(=O)Nc2cc([N+](=O)[O-])ccc2F)cc1
[1]
  T/C: 98 % of control
[2]
  T/C: 95 % of control
[3]
  T/C: 87 % of control

## Cc1cccc(NNC(N)=O)c1
endpoint: mean survival time, dose: 55.0 mg/kg/injection, schedule: Q01DX Z (ip), vehicle: saline
  T/C: 103 % of control
endpoint: mean survival time, dose: 83.0 mg/kg/injection, schedule: Q01DX Z (ip), vehicle: saline
  T/C: 97 % of control
endpoint: mean survival time, dose: 125.0 mg/kg/injection, schedule: Q01DX Z (ip), vehicle: saline
  T/C: 101 % of control

## CCOC(=O)C(C(=O)OCC)C(=O)c1cc(-c2ccc(Cl)c(Cl)c2)nc2c(Cl)cc(Cl)cc12
endpoint: mean survival time, dose: 50.0 mg/kg/injection, schedule: Q01DX009 (ip), vehicle: Klucel (hydroxypropylcellulose) (HPC)
  T/C: 98 % of control
endpoint: mean survival time, dose: 100.0 mg/kg/injection, schedule: Q01DX009 (ip), vehicle: Klucel (hydroxypropylcellulose) (HPC)
  T/C: 104 % of control
[1]
  T/C: 101 % of control
[2]
  T/C: 109 % of control

## CCCCOC(=O)CCC(C)=O
[4]
  T/C: 92 % of control
[5]
  T/C: 109 % of control
[6]
  T/C: 100 % of control
[7]
  T/C: 113 % of control
[8]
  T/C: 96 % of control
[9]
  T/C: 112 % of control

## CC(=O)CC(=O)Nc1ccccn1
[1]
  T/C: 97 % of control
[2]
  T/C: 101 % of control
[3]
  T/C: 98 % of control

## O=C(CCCCC(=O)N/N=C\c1ccccn1)N/N=C\c1ccccn1
endpoint: mean survival time, dose: 100.0 mg/kg/injection, schedule: Q01DX009 (ip), vehicle: saline
  T/C: 98 % of control
[10]
  T/C: 96 % of control
endpoint: mean survival time, dose: 200.0 mg/kg/injection, schedule: Q01DX009 (ip), vehicle: saline
  T/C: 89 % of control
[11]
  T/C: 107 % of control
endpoint: mean survival time, dose: 400.0 mg/kg/injection, schedule: Q01DX009 (ip), vehicle: saline
  T/C: 100 % of control
[12]
  T/C: 89 % of control

## O=c1cc(CN(CCO)CCO)[nH]c(=O)[nH]1
[10]
  T/C: 93 % of control
[11]
  T/C: 95 % of control
[12]
  T/C: 93 % of control

## O=C(CC(O)(C(F)(F)F)C(F)(F)F)c1ccc(-c2ccccc2)cc1
endpoint: mean survival time, dose: 50.0 mg/kg/injection, schedule: Q01DX009 (ip), vehicle: saline with Tween-80
  T/C: 96 % of control
endpoint: mean survival time, dose: 50.0 mg/kg/injection, schedule: Q04DX003 (ip), vehicle: saline with Tween-80
  T/C: 101 % of control
[4]
  T/C: 98 % of control
[5]
  T/C: 104 % of control
[6]
  T/C: 100 % of control
[7]
  T/C: 97 % of control
[8]
  T/C: 101 % of control
[9]
  T/C: 93 % of control

## CC(C1SCCCS1)C1SCCCS1
endpoint: mean survival time, dose: 37.5 mg/kg/injection, schedule: Q04DX002 (ip), vehicle: saline with Tween-80
  T/C: 92 % of control
endpoint: mean survival time, dose: 75.0 mg/kg/injection, schedule: Q04DX002 (ip), vehicle: saline with Tween-80
  T/C: 92 % of control
endpoint: mean survival time, dose: 150.0 mg/kg/injection, schedule: Q04DX002 (ip), vehicle: saline with Tween-80
  T/C: 98 % of control
endpoint: mean survival time, dose: 300.0 mg/kg/injection, schedule: Q04DX002 (ip), vehicle: saline with Tween-80
  T/C: 95 % of control

## CCC(C)C(C#N)(CCN1CCCCC1)Cc1cccc2ccccc12 (stereo unspecified)
endpoint: mean survival time, dose: 25.0 mg/kg/injection, schedule: Q04DX003 (ip), vehicle: Klucel (hydroxypropylcellulose) (HPC)
  T/C: 109 % of control
endpoint: mean survival time, dose: 50.0 mg/kg/injection, schedule: Q04DX003 (ip), vehicle: Klucel (hydroxypropylcellulose) (HPC)
  T/C: 98 % of control
[4]
  T/C: 96 % of control
[1]
  T/C: 95 % of control
